From PubChem BioAssay (NCI) come the findings set out here.

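Dose response: 5 concentrations. Exposure: 48 h. Format: 96-well plates. Endpoint: linear interpolation; highest concentration if not reached. The concentration for 50% growth inhibition is given as GI50. TGI: total growth inhibition.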

Common to all, as to assay: inhibition of tumour cell growth, NCI panel, 48 h
In test [1] the test system is SK-MEL-28 melanoma.
Test [2] deals with SK-MEL-2 melanoma.
Test [3] deals with SW-620 colon.
The subject of test [4] is SF-295 CNS.
Test [5] relates to PC-3 prostate.
The test system of test [6] is OVCAR-4 ovarian.
Test [7] deals with SN12C renal.
Test [8] deals with SF-539 CNS.
Test [9] relates to NCI-H522 lung.
The subject of test [10] is RXF 393 renal.

With `N#Cc1nn(-c2cc(=O)[nH]c3ccc(Cl)cc23)c(N)c1C#N`, the GI50 in test [1] is greater than 100 µM; in test [2], greater than 100 µM; in [3], greater than 100 µM; in [4], greater than 100 µM; in test [5] it was greater than 100 µM; in test [6], 8.63 µM. Also, the GI50 in test [7], in [8] and in test [9] was greater than 100 µM in each case. Further, the TGI in test [1], in test [2], in [3], in test [4], in [5] and in test [6] was greater than 100 µM each time. Also, the TGI in test [7], in [8] and in test [9] was greater than 100 µM throughout.

For `Nc1ncn([C@@H]2O[C@H](CO)[C@@H](O)[C@H]2O)c(=O)n1`, the GI50 is 2.68 µM in test [1]; 0.612 µM in [2]; 0.346 µM in test [10]; 1.71 µM in test [3]; 2.28 µM in [4]; 2.17 µM in [5]. Further, the values for the GI50 in [7] and in test [9] were 0.594 µM and 1.29 µM, respectively. For the same compound, the TGI in test [1] is 11.1 µM; in test [2], 3.83 µM; in test [10], 4.64 µM; in test [3], greater than 100 µM; in [4], 58.7 µM; in test [5], greater than 100 µM. The TGI was greater than 100 µM in [7] and 5.84 µM in [9].

Take `COc1ccc(-c2nnc3n(C)c(=O)c4ccccc4n23)cc1N`: the GI50 is 2.59 µM in test [10]; 0.0523 µM in test [3]; 0.0499 µM in test [4]; 2.65 µM in test [5]; 16.3 µM in [6]; 6.83 µM in test [7]. Moreover, the figures for the GI50 in [8] and in [9] were 1.63 µM and 0.0306 µM, respectively. Also, the TGI in test [10], in test [3], in test [4], in test [5], in test [6] and in test [7] was greater than 100 µM throughout. The TGI in test [8] was determined as 8.82 µM; in test [9], 42.6 µM.

Turning to `CC(=O)Nc1ccc(-c2csc(Nc3cccc(-c4csc(C)n4)c3)n2)cc1`, the GI50 in [1] is 7.32 µM; in [2], 8.03 µM; in test [10] it was 2.01 µM; in [3] it was 3.51 µM; in [4], 0.907 µM; in test [5], 1.67 µM. Also, the GI50 in test [7] was 1.36 µM; in test [8], 1.1 µM; in [9] it was 7.72 µM. Further, the TGI in test [1] is greater than 37.3 µM; in [2] it was greater than 27.3 µM; in test [10], greater than 12.9 µM; in test [3], 49 µM; in [4], greater than 13.2 µM; in test [5], greater than 19.9 µM. In addition, the figures for the TGI in test [7], in test [8] and in [9] were 6.78 µM, 6.83 µM and greater than 28 µM, respectively.

Regarding `CN(C)CC[C@H](CSc1ccccc1)Nc1ccc(S(=O)(=O)NC(=O)c2ccc(N3CCN(Cc4ccccc4-c4ccc(Cl)cc4)CC3)cc2)cc1[N+](=O)[O-]`, the GI50 in test [1] was 5.73 µM; in [2] it was 1.88 µM; in [10], 0.918 µM; in [3], 4.02 µM; in test [4], 3.6 µM; in [5], 4.07 µM. Also, the GI50 was 3.04 µM in [6], 3.56 µM in test [7] and 36.5 µM in test [8]. In addition, the TGI in test [1] is greater than 100 µM; in [2], 4.94 µM; in [10], 4.27 µM; in [3], greater than 61.1 µM; in test [4] it was greater than 100 µM; in test [5] it was greater than 100 µM. In addition, the TGI in [6] was greater than 29.6 µM; in test [7], greater than 56.7 µM; in test [8], greater than 100 µM.

In the case of `CCOC(=O)N[C@H]1CCc2cc(OC)c(OC)c(OC)c2-c2ccc(SC)c(=O)cc21`, the GI50 in test [1] is greater than 55.6 µM; in test [2], 0.345 µM; in [6], 0.0677 µM; in test [7], less than 0.01 µM. Besides, the TGI in [1], in test [10], in test [3], in test [5], in test [6] and in test [7] was greater than 100 µM in each case. Further, the TGI in test [8] is less than 0.01 µM.

Consider `COc1ccc(C(=O)Nc2ccc(O)c(=O)cc2)cc1`, for which the TGI is 56.4 µM in test [1]; greater than 100 µM in [2]; 37.3 µM in [10]; greater than 100 µM in test [3]; greater than 100 µM in test [4]; greater than 100 µM in test [5]. Moreover, the TGI was greater than 100 µM in [7], 81.1 µM in test [8] and 63.1 µM in [9].

Turning to `CN1CCN(c2ccc(Nc3cc(-c4cccc(-n5ccc6cc(C7CC7)cc(F)c6c5=O)c4CO)cn(C)c3=O)nc2)CC1`, the GI50 was 4.1 µM in test [1]; 15 µM in test [2]; 1.9 µM in [10]; 4.74 µM in [3]; 10.5 µM in [4]; 8.93 µM in [5]. For the same compound, the GI50 in test [7] was 3.35 µM; in [8], 1.82 µM; in [9], 4.33 µM. In addition, the TGI was 17 µM in [1]; 35.1 µM in test [2]; 5.37 µM in test [10]; 23.9 µM in [3]; 24.2 µM in test [4]; 25.2 µM in [5]. For the same compound, the TGI in test [7] is 13.9 µM; in [8] it was 3.63 µM; in test [9], 21 µM.

As to `CCN(CC)CCNc1nc(N)c(C#N)c(C#N)c1C#N`, the TGI in [1], in test [10], in [3], in [4], in [5] and in test [6] was greater than 10 µM throughout. The TGI in [7], in test [8] and in [9] was greater than 10 µM each time.

For `COC(=O)[C@]12CC[C@@H](C)[C@H](C)[C@@H]1C1=CC[C@@H]3[C@@]4(C)C[C@@H](O)[C@H](O)[C@@](C)(CO)C4=CC[C@@]3(C)[C@]1(C)CC2`, the GI50 in test [1] is 19.2 µM; in test [2], 17.8 µM; in [10], 16.9 µM; in [3] it was 16.9 µM; in test [4], 16.7 µM; in [5], 12.9 µM. Besides, the GI50 in [6] is 15.9 µM; in [8], 17.7 µM; in test [9], 16.2 µM. In addition, the TGI in [1] is 40.9 µM; in test [2], 33.1 µM; in [10], 34 µM; in [3], 34.1 µM; in [4], 33.1 µM; in test [5], 27.5 µM. Further, the figures for the TGI in test [6], in test [8] and in [9] were 32.8 µM, 34.6 µM and 33.6 µM, respectively.
